Measured values as given in patent US20100063085A1, “METHOD OF TREATING LEARNING IMPAIRMENT IN DOWN'S SYNDROME SUBJECTS” (University Court of The University of Dundee, priority 2008, published 2010).
Where two headings read alike, the source gives them in different places.

Columns and labels:
[1] = molecular target: JNK/SAPK1c (Homo sapiens, UniProt P45983); experiment: JNK/SAPK1c 33P kinase assay; type: biochemical; conditions: read-out: JNK/SAPK1c activity as percentage of control without inhibitor
JNK/SAPK1c, sequence (P45983 whole entry): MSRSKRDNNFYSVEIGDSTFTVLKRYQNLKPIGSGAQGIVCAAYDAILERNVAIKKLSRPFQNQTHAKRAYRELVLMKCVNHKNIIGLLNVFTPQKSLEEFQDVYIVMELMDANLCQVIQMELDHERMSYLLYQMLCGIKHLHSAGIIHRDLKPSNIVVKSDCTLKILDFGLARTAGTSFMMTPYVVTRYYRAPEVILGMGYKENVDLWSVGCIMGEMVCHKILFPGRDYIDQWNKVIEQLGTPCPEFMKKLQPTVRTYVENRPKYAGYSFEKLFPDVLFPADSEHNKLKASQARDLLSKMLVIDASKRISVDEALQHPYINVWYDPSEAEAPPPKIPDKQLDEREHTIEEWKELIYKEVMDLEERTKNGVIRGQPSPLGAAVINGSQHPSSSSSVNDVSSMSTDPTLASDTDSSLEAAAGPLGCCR
Experimental: (§1) All assays (25.5 μl) were carried out at room temperature (21° C.) and were linear with respect to time and enzyme concentrations under the conditions used. Assays were performed for 30 minutes except assays for LCK and PKB which were performed for 15 minutes using Multidrop Micro reagent dispensers (Thermo Electron Corporation, Waltham, Mass. 02454, USA) in a 96-well format. The concentration of […] [γ-^33P] ATP (800 cpm/pmol) in the assays was one of three concentrations (5, 20 or 50 μM) in order to be at or below Km for ATP for the enzyme. Assays were initiated with MgATP and stopped by addition of 5 μl of 0.5M orthophosphoric acid. Assays were then harvested onto P81 filterplates using a unifilter harvester (PerkinElmer, Boston, Mass. 02118, USA), with a wash buffer of 50 mM orthophosphoric acid. Filterplates were then air dried overnight. 10 μl of Microscint O was added per well prior to counting for radioactivity.
MKK1, JNK/SAPK1c, SAPK2a/p38, SAPK2b/p38β2, SAPK3/p38γ, SAPK4/p38δ, MAPK2/ERK2, MAPKAP-K1β, MAPKAP-K2, MSK1, PRAK, PKA, PKCα, PDK1, SGK, p70S6K, GSK3β, ROCK-II, PRK2, AMPK, CHK1, CHK2, CK2, PHK, LCK, were assayed according to Davies et al., (Davies, S. P., Reddy, H., Caivano, M. and Cohen, P. Biochem. J. 351, 95-105, 2000.
CSK and CDK2/cyclinA, were assayed according to Bain et al. (Bain J, McLauchlan H, Elliott M, Cohen P. Biochem J. 371, 199-204, 2003., except that ATP concentrations were either 5, 20 or 50 micromolar so that they were at or below the Km for ATP. The ATP concentrations used were as follows, 5 μM for assays of MKK1, SAPK3, SAPK4, GSK3β, PRK2 CK2 20 μm for assays of JNK, SAPK2β, MAPKAP-K2, MSK1, PRAK, PKA, […], PDK1, SGK, p70S6K, ROCK-II, CHK1, CHK2, CSK, CDK2, and 50 μM for assays of SAPK2a, MAPK2/ERK2, AMPK, LCK, PHK and MAPKAP-K1β.

[2] = molecular target: T1, PKD1 (Homo sapiens, UniProt Q15139); experiment: PKD1 33P kinase assay; type: biochemical; conditions: read-out: PKD1 activity as percentage of control without inhibitor
T1 sequence (Q15139 1-912): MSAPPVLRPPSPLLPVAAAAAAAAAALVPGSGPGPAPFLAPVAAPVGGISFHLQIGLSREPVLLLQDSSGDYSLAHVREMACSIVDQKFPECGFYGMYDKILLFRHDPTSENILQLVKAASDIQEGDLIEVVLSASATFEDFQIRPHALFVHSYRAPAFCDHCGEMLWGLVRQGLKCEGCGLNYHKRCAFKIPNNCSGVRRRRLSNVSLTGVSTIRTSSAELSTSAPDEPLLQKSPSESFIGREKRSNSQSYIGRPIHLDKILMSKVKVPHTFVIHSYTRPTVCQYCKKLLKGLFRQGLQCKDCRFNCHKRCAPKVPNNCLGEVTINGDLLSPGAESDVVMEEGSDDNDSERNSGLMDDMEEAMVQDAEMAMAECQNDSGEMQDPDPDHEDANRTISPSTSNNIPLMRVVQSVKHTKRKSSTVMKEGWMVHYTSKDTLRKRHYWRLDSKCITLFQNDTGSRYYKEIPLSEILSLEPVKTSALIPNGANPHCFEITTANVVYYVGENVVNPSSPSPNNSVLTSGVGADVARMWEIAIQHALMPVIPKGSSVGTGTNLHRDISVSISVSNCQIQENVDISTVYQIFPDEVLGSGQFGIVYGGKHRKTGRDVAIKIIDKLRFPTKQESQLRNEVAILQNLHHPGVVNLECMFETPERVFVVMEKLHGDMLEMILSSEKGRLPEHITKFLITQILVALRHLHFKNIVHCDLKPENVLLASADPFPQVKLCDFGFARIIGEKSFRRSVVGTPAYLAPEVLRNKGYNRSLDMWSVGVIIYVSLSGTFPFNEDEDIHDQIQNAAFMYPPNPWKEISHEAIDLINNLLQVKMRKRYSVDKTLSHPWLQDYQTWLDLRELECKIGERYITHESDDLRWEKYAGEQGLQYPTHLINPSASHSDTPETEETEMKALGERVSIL
Experimental: as §1
The following kinases were assayed against the substrates indicated. Aurora B was assayed against the substrate peptide […] (300 μM), ERK8 and MST-2 were both assayed against MBP (0.33 mg/ml). IKKβ was assayed against the substrate peptide […] (300 μM), JNK3 was assayed against 3 μM ATF2[19-96]. MAPKAP-K3 and PKD1 were both assayed against […] (30 μM), MARK3 was assayed against CHKtide ([…]) substrate peptide (300 μM). MNK1 and MNK2 were both assayed against eIF4E protein (0.5 mg/ml). NEK7 was assayed against […] (300 μM), PIM2 was assayed against […] (300 μM), ΔPH PKBβ-S474D was assayed against Crosstide (30 μM), PLK1 was assayed against […] (300 μM). PRK2 was assayed against Long S6 peptide, […] (30 μM), RSK2 was assayed against […] (30 μM), SRC was assayed against cdc2 peptide, […], (300 μM) and SRPK1 was assayed against peptide […] (300 μM). All enzymes were diluted in 50 mM Tris/HCl pH 7.5, 0.1 mM EGTA, 1 mg/ml BSA, 0.1% β-mercaptoethanol buffer and assayed in an incubation containing 50 mM Tris/HCl pH7.5, 0.1 mM EGTA, 0.1% β-mercaptoethanol, CAMK-1 (5-20 mU) diluted in 50 mM Tris/HCl pH 7.5, 0.1 mM EGTA, 1 mg/ml BSA, 0.1% β-mercaptoethanol is assayed against substrate peptide […] in an incubation containing 50 mM Tris/HCl pH 7.5, 0.1 mM EGTA, 0.5 mM CaCl2, 0.3 μM calmodulin, 0.1% β-mereaptoethanol, 300 μM substrate peptide, 10 mM magnesium acetate and 0.05 mM [^33P-γ-ATP] (500-1000 cpm/pmole). EF2K (5-20 mU) diluted in 50 mM Hepes pH 6.6, 0.1% β-mercaptoethanol, 1 mg/ml BSA is assayed against a substrate peptide […] in an incubation containing 50 mM Hepes pH 6.6, 0.2 mM CaCl2, 0.3 μM Calmodulin, 0.05% b-mercaptoethanol, 300 μM substrate peptide, 10 mM magnesium acetate and 0.05 mM [^33P-γ-ATP] (500-1000 cpm/pmole).

Structure (SMILES) | remaining activity at 1 µM [1] [%] | remaining activity at 10 µM [1] [%] | remaining activity at 1 µM [2] [%] | remaining activity at 10 µM [2] [%] | remaining activity at 1 µM ([2]; inhibitor 1 μM) [%] | remaining activity at 10 µM ([2]; inhibitor 10 μM) [%] | remaining activity at 1 µM ([1]; inhibitor 1 μM) [%] | remaining activity at 10 µM ([1]; inhibitor 10 μM) [%]
COc1ccc2c(c1)[nH]c1c(C)nccc12 [Harmine] | 85 | 69 | 86 | 53 |  |  |  | 
COc1ccc2c3c([nH]c2c1)C(C)=NCC3 [Harmaline] | 99 | 96 |  |  | 99 | 101 |  | 
CC1=NCCc2c1[nH]c1cc(O)ccc21 [Harmalol] |  |  |  |  | 75 | 21 | 87 | 84
